In patent publication US20070275100A1, “Use of gaseous nitric oxide as an anti-cancer agent” (priority 1998, published 2007):

Columns and labels:
Staphylococcus aureus = assay: High dose gNO on Staphylococcus aureus plated on blood agar (Example 2); type: cell-based; conditions: 25,000 ppm gNO
From the text: The purpose of this example is to observe the possibility of a novel bactericidal high dose (25,000 ppm) effect of gaseous nitric oxide (gNO) on an ATCC strain of Staphylococcus aureus plated on a blood agar media and determine a time effect of this dosage.
A closed environment treatment chamber was used (see, “A direct nitric oxide gas delivery system for bacterial and mammalian cell cultures,” A. Ghaffari, D. H. Neil, A. Ardakani, J. Road, A. Ghahary, C. C. Miller. Nitric Oxide 12(3):129-140, 2005, herein incorporated by reference in its entirety). The following steps were performed: • 1. Calibrated the AeroNOx analyzer as per standard procedure. • 2. Calibrated the closed environment treatment chamber as per standard procedure. • 3. In a 50 mL tube, known Staphylococcus aureus bacteria in 10 mL Nutrient Broth was grown overnight or for about 12 hours in a shaker incubator. • 4. Measured optical density of grown Staphylococcus aureus using a spectrophotometer set at 600 nm. Used original nutrient broth as a blank. O.D. should be 1.0±10%. • 5. Turned on closed environment treatment chamber. • 6. Labeled three plates: Air, NO+1 minute, NO+3 minutes. • 7. Immersed a sterile cotton swab into the bacterial mixture in the 50 mL tube and shaked off excess liquid. • 8. Swiped one plate entirely in two directions with the swab. • 9. Repeated steps 7-8 using the cotton swab for the remaining […] plates. • 10. Using clean technique, utilized the device to administer either air or 25,000 ppm gNO at a fixed distance and flow towards the inoculated agar media. The agar plate was enclosed in an isolated plastic box with lid. A micropipette through which the gas flowed was affixed to the box lid. The box lid was sealed through the use of plastic wrap. The micropipette was in fluid communication with the gaseous mixing manifold in order to deliver the specified concentrations. • 11. Placed the three treated plates into the laboratory incubator. • 12. Removed plates after 8 hours and placed in a 37° C. incubator for 12-16 hours. • 13. After incubation, recorded results with digital pictures. • 14. Sealed plates with paraffin and refrigerated for storage.

A549 = assay: MTS cell proliferation assay, 25,000 ppm gNO (Example 4), A549; type: cell-based, human
From the text: (§1) The purpose of this example is to illustrate the tumorcidal activity of high-dosage gNO. We examined the cellular sensitivity to 25,000 ppm of gNO on 5 non-small cell lung cancer (NSCLC) cells lines by an MTS cell proliferation assay.
(§2) Human lung cancer cell lines A549, NCI-H23, NCI-H460, HTB-58, H2170, and H441 (commercially available from American Type Culture Collection (“ATCC”), Manassas, Va.) were maintained in culture medium recommended by ATCC. All media were supplemented with 1% penicillin/streptomycin and 10% fetal bovine serum (commercially available from Invitrogen Gibco-BRL, Burlington, Ontario, Canada). […]
(§3) After 24 hours, the A549, NCI-H23, NCI-H460, HTB-58, H2170 and H441 cells were treated with 25,000 ppm gNO or air (control) for 1 minute, 3 minutes, 6 minutes, 9 minutes, 10 minutes, 20 minutes, and 30 minutes. Immediately following treatment, the viability of the cells was determined using a colorimetric MTS (3-(4,5-dimethylthiazol-2-yl)-5-(3-carboxymethoxyphenyl)-2-(4-sulfophenyl)-2H-tetrazolium, inner salt) cell proliferation assay (commercially available as the CellTiter 960 Aqueous One Solution Cell Proliferation Assay (MTS) from Promega, Madison, Wis., USA) according to the manufacturer's protocol. […] Absorbance was measured at 490 nm for each well using a micro-plate reader (commercially available from Dynex Technologies, Chantilly, Va., USA). […]

NCI-H460 = assay: MTS cell proliferation assay, 25,000 ppm gNO (Example 4), NCI-H460; type: cell-based, human
From the text: as §1, §2, §3

HTB-58 = assay: MTS cell proliferation assay, 25,000 ppm gNO (Example 4), HTB-58; type: cell-based, human
From the text: as §1, §2, §3

[1] = tested on: squamous lung cancer cells (H2170); assay: Viability under 25,000 ppm gNO (Example 5), H2170; type: cell-based; conditions: Homo sapiens, NCI-H2170, 0.1 h, after 6 minutes, FIG. 8 D
Description: After 24 hours, the A549, NCI-H23, NCI-H460, HTB-58, H2170 and H441 cells were treated with 25,000 ppm gNO or air (control) for 1 minute, 3 minutes, 6 minutes, 9 minutes, 10 minutes, 20 minutes, and 30 minutes. Immediately following treatment, the viability of the cells was determined using a colorimetric MTS (3-(4,5-dimethylthiazol-2-yl)-5-(3-carboxymethoxyphenyl)-2-(4-sulfophenyl)-2H-tetrazolium, inner salt) cell proliferation assay (commercially available as the CellTiter 960 Aqueous One Solution Cell Proliferation Assay (MTS) from Promega, Madison, Wis., USA) according to the manufacturer's protocol. Briefly, […] of MTS solution was added to each well and the cells were incubated for 2 hours at 37° C. Absorbance was measured at 490 nm for each well using a micro-plate reader (commercially available from Dynex Technologies, Chantilly, Va., USA). The relative percentage of cell survival (viability) was calculated by dividing the absorbance of treated cells by that of control cells for each experimental time point.
The purpose of this example is to illustrate the effects on normal human cell lines compared to the effects on cancerous cell lines of high-dosage gNO. The above study was repeated. […]

For `[N]=O` [gNO, nitric oxide], the “effect on the growth of S. aureus” value (Staphylococcus aureus; 1 minute) was “profound inhibitory effect”, the “plate appearance after incubation (FIG. 4)” value (Staphylococcus aureus; 1 minute of exposure) was “the plate still shows signs of the S. aureus” and the “effect on the growth of S. aureus” value (Staphylococcus aureus; 3 minutes) was “possible cidal effect”. For the same molecule, the “plate appearance after incubation (FIG. 5)” value (Staphylococcus aureus; 3 minutes of exposure) was “the plate shows no signs of the S. aureus”, the “IC50 (exposure time)” value (A549) was “about 3 minutes” and the “IC50 (exposure time)” value (NCI-H460) was “about 7 minutes”. The “IC50 (exposure time)” value (HTB-58) was “about 7 minutes” and the viability at 25000 ppm [1] was less than 10%.
